Laboratory results taken from PubChem BioAssay (NCI).
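Protocol summary: plate cells (96-well), add compound at 5 concentrations, incubate 48 h, interpolate endpoints linearly. At the GI50, growth is halved. TGI: concentration producing complete growth inhibition.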

What was measured:
Test in all cases: NCI tumour cell line growth inhibition, 48 h
K-562 leukemia = test system: K-562 leukemia
SK-MEL-5 melanoma = test system: SK-MEL-5 melanoma
SW-620 colon = test system: SW-620 colon
OVCAR-8 ovarian = test system: OVCAR-8 ovarian
SNB-75 CNS = test system: SNB-75 CNS
OVCAR-5 ovarian = test system: OVCAR-5 ovarian
HCT-116 colon = test system: HCT-116 colon
SF-539 CNS = test system: SF-539 CNS
IGROV1 ovarian = test system: IGROV1 ovarian
OVCAR-4 ovarian = test system: OVCAR-4 ovarian
T-47D breast = test system: T-47D breast
A549 NSCLC = test system: A549 NSCLC
M14 melanoma = test system: M14 melanoma
CCRF-CEM leukemia = test system: CCRF-CEM leukemia
NCI-H460 lung = test system: NCI-H460 lung
SR leukemia = test system: SR leukemia
DU-145 prostate = test system: DU-145 prostate
UACC-257 melanoma = test system: UACC-257 melanoma
ACHN renal = test system: ACHN renal
SF-295 CNS = test system: SF-295 CNS
COLO 205 colon = test system: COLO 205 colon
HL-60(TB) leukemia = test system: HL-60(TB) leukemia
SK-MEL-28 melanoma = test system: SK-MEL-28 melanoma
BT-549 breast = test system: BT-549 breast
SNB-19 CNS = test system: SNB-19 CNS
TK-10 renal = test system: TK-10 renal
MDA-MB-231 breast = test system: MDA-MB-231 breast
MOLT-4 leukemia = test system: MOLT-4 leukemia
MDA-MB-435 = test system: MDA-MB-435
HOP-62 NSCLC = test system: HOP-62 NSCLC
NCI/ADR-RES ovarian = test system: NCI/ADR-RES ovarian
U251 CNS = test system: U251 CNS
PC-3 prostate = test system: PC-3 prostate
HCT-15 colon = test system: HCT-15 colon
SK-MEL-2 melanoma = test system: SK-MEL-2 melanoma
OVCAR-3 ovarian = test system: OVCAR-3 ovarian
UO-31 renal = test system: UO-31 renal
A498 renal = test system: A498 renal
UACC-62 melanoma = test system: UACC-62 melanoma
HS 578T breast = test system: HS 578T breast
786-0 renal = test system: 786-0 renal
RXF 393 renal = test system: RXF 393 renal
NCI-H226 lung = test system: NCI-H226 lung
SF-268 CNS = test system: SF-268 CNS
HCC-2998 colon = test system: HCC-2998 colon
EKVX NSCLC = test system: EKVX NSCLC
LOX IMVI melanoma = test system: LOX IMVI melanoma
HOP-92 NSCLC = test system: HOP-92 NSCLC
MALME-3M melanoma = test system: MALME-3M melanoma
SN12C renal = test system: SN12C renal
SK-OV-3 ovarian = test system: SK-OV-3 ovarian
RPMI-8226 leukemia = test system: RPMI-8226 leukemia
HT29 colon = test system: HT29 colon
NCI-H23 lung = test system: NCI-H23 lung
KM12 colon = test system: KM12 colon
MCF7 breast = test system: MCF7 breast
NCI-H522 lung = test system: NCI-H522 lung
CAKI-1 renal = test system: CAKI-1 renal

CN(C)C[C@@H]1CCn2cc(c3ccccc32)C2=C(C(=O)NC2=O)c2cn(c3ccccc23)CCO1
GI50 (K-562 leukemia): 916 nM
TGI (K-562 leukemia): 3370 nM
GI50 (SK-MEL-5 melanoma): 1390 nM
TGI (SK-MEL-5 melanoma): 7110 nM
GI50 (SW-620 colon): 467 nM
TGI (SW-620 colon): 4280 nM
GI50 (OVCAR-8 ovarian): 598 nM
TGI (OVCAR-8 ovarian): 8330 nM
GI50 (SNB-75 CNS): 1400 nM
TGI (SNB-75 CNS): 5960 nM
GI50 (OVCAR-5 ovarian): 1340 nM
TGI (OVCAR-5 ovarian): > 10000 nM
GI50 (HCT-116 colon): 374 nM
TGI (HCT-116 colon): 1560 nM
GI50 (SF-539 CNS): 1080 nM
TGI (SF-539 CNS): 2450 nM
GI50 (IGROV1 ovarian): 1300 nM
TGI (IGROV1 ovarian): 8490 nM
GI50 (OVCAR-4 ovarian): 2580 nM
TGI (OVCAR-4 ovarian): > 10000 nM
GI50 (T-47D breast): 828 nM
TGI (T-47D breast): > 10000 nM
GI50 (A549 NSCLC): 2720 nM
TGI (A549 NSCLC): > 10000 nM
GI50 (M14 melanoma): 1030 nM
TGI (M14 melanoma): > 10000 nM
GI50 (CCRF-CEM leukemia): 459 nM
TGI (CCRF-CEM leukemia): 2730 nM
GI50 (NCI-H460 lung): 1480 nM
TGI (NCI-H460 lung): 5730 nM
GI50 (SR leukemia): 1680 nM
TGI (SR leukemia): 5550 nM
GI50 (DU-145 prostate): 2750 nM
TGI (DU-145 prostate): > 10000 nM
GI50 (UACC-257 melanoma): 2080 nM
TGI (UACC-257 melanoma): > 10000 nM
GI50 (ACHN renal): 2040 nM
TGI (ACHN renal): > 10000 nM
GI50 (SF-295 CNS): 3300 nM
TGI (SF-295 CNS): > 10000 nM
GI50 (COLO 205 colon): 1030 nM
TGI (COLO 205 colon): > 10000 nM
GI50 (HL-60(TB) leukemia): 1600 nM
TGI (HL-60(TB) leukemia): 3750 nM
GI50 (SK-MEL-28 melanoma): 1030 nM
TGI (SK-MEL-28 melanoma): 8130 nM
GI50 (BT-549 breast): 1410 nM
TGI (BT-549 breast): 9570 nM
GI50 (SNB-19 CNS): 4490 nM
TGI (SNB-19 CNS): > 10000 nM
GI50 (TK-10 renal): 2220 nM
TGI (TK-10 renal): > 10000 nM
GI50 (MDA-MB-231 breast): 1680 nM
TGI (MDA-MB-231 breast): 9490 nM
GI50 (MOLT-4 leukemia): 1950 nM
TGI (MOLT-4 leukemia): 5590 nM
GI50 (MDA-MB-435): 1460 nM
TGI (MDA-MB-435): > 10000 nM
GI50 (HOP-62 NSCLC): 2540 nM
TGI (HOP-62 NSCLC): > 10000 nM
GI50 (NCI/ADR-RES ovarian): 2580 nM
TGI (NCI/ADR-RES ovarian): > 10000 nM
GI50 (U251 CNS): 1900 nM
TGI (U251 CNS): > 10000 nM
GI50 (PC-3 prostate): 1770 nM
TGI (PC-3 prostate): > 10000 nM
GI50 (HCT-15 colon): 1610 nM
TGI (HCT-15 colon): > 10000 nM
GI50 (SK-MEL-2 melanoma): 2000 nM
TGI (SK-MEL-2 melanoma): > 10000 nM
GI50 (OVCAR-3 ovarian): 2650 nM
TGI (OVCAR-3 ovarian): > 10000 nM
GI50 (UO-31 renal): 539 nM
TGI (UO-31 renal): 3230 nM
GI50 (A498 renal): 1130 nM
TGI (A498 renal): 4540 nM
GI50 (UACC-62 melanoma): 792 nM
TGI (UACC-62 melanoma): > 10000 nM
GI50 (HS 578T breast): 1760 nM
TGI (HS 578T breast): 8880 nM
GI50 (786-0 renal): 1780 nM
TGI (786-0 renal): 3930 nM
GI50 (RXF 393 renal): 1770 nM
TGI (RXF 393 renal): 5170 nM
GI50 (NCI-H226 lung): 2000 nM
TGI (NCI-H226 lung): > 10000 nM
GI50 (SF-268 CNS): 4100 nM
TGI (SF-268 CNS): > 10000 nM
GI50 (HCC-2998 colon): 713 nM
TGI (HCC-2998 colon): > 10000 nM
GI50 (EKVX NSCLC): 3920 nM
TGI (EKVX NSCLC): > 10000 nM
GI50 (LOX IMVI melanoma): 1630 nM
TGI (LOX IMVI melanoma): 3440 nM
GI50 (HOP-92 NSCLC): 446 nM
TGI (HOP-92 NSCLC): 6310 nM
GI50 (MALME-3M melanoma): 1170 nM
TGI (MALME-3M melanoma): 5010 nM
GI50 (SN12C renal): 679 nM
TGI (SN12C renal): 5850 nM
GI50 (SK-OV-3 ovarian): 2080 nM
TGI (SK-OV-3 ovarian): > 10000 nM
GI50 (RPMI-8226 leukemia): 1130 nM
TGI (RPMI-8226 leukemia): 4020 nM
GI50 (HT29 colon): 3320 nM
TGI (HT29 colon): > 10000 nM
GI50 (NCI-H23 lung): 2950 nM
TGI (NCI-H23 lung): > 10000 nM
GI50 (KM12 colon): 1820 nM
TGI (KM12 colon): > 10000 nM
GI50 (MCF7 breast): 1740 nM
TGI (MCF7 breast): > 10000 nM
GI50 (NCI-H522 lung): 763 nM
TGI (NCI-H522 lung): 7310 nM
GI50 (CAKI-1 renal): 1360 nM
TGI (CAKI-1 renal): > 10000 nM
